These results are taken from US20110092592A1, “DIAGNOSIS AND TREATMENT OF HEPATIC DISORDER” (priority 2008, published 2011).

Experiment [1] concerns subjects affirmatively diagnosed as having NASH. Description: Example 1: EPA-E group vs placebo control group in NASH subjects, one year. In kind it is in vivo, human. The procedure:
Subjects affirmatively diagnosed as having NASH are divided into two groups (each comprising 15 cases), namely the EPA-E group and the control group, then the groups are caused to take EPADEL S900 (containing 900 mg of EPA-E) and a placebo, respectively, twice a day. Doses are modified as appropriate to the subjects' conditions. Following the method described in American Journal of Gastroenterology 2001, Vol. 96, pp. 2711-2717 with respect to the criteria for diagnosing subjects, monitoring, histological testing, statistic analysis, and so forth, blood chemistry tests on ALT, AST, and the like are performed and the plasma fatty acid composition is determined over a dosage period of one year, and liver biopsy is conducted at the end of dosage, so as to make histological evaluations.
Of the EPA-E group, 15 cases are sorted into two groups, one (“effective” group) comprising the cases in which the score in accordance with the method of Brunt et al. is changed after the administration of the drug from that before the administration by 1 or 2, and the other (“ineffective” group) comprising the cases in which the score after the administration is not changed from that before the administration, and analysis is conducted on the change in the plasma fatty acid composition as determined over the dosage period of one year. The OA/SA ratio before the administration is not different between the effective group and the ineffective group. […] The reduction rate of the OA/SA ratio in two months is calculated by the equation: reduction rate (%)=[(OA/SA ratio before start of administration)−(OA/SA ratio two months after start of administration)]/OA/SA ratio before start of administration×100.

For experiment [2], the system named is patients with NASH having liver fibrosis. The experiment can be described thus: Example 3: EPA-E with dietary restriction and exercise therapy in NASH patients having liver fibrosis, one year. Type of experiment: in vivo, human. The note with it: one year after start of treatment. Here is the method: Patients with NASH having liver fibrosis, that is to say, subjects suffering from fibrosis classified to stage 1 or 2 according to the fibrosis staging of Brunt et al. are collected (15 cases). Dietary restriction and exercise therapy are conducted so that the blood OA/SA ratio as monthly measured may be reduced in value from that measured previously, while 900 mg of EPA-E is administered twice a day, so as to do follow-up for one year. To the subjects in whom no change is recognized in OA/SA ratio, 900 mg of EPA-E is administered thrice a day.
The subjects in whom the reduction ratio of the OA/SA ratio in one month after the start of the administration is not lower than 5% are included in group A, while the subjects in whom the reduction ratio of the OA/SA ratio in one month after the start of the administration is lower than […] are included in group B. The reduction rate of the OA/SA ratio in one month is calculated by the equation: reduction rate (%)=[(OA/SA ratio before start of administration)−(OA/SA ratio one month after start of administration)]/OA/SA ratio before start of administration×100.

Another experiment deals with patients with NASH. The experiment can be described thus: Example 4: EPA-E in NASH patients grouped by adiponectin gene SNP276 genotype, one year. In kind it is in vivo, human. The following applies: for NAS scores (Kleiner et al.): 900 mg twice a day, one year. The procedure:
There are three genotypes for the adiponectin gene SNP276, the T/T, G/T and G/G genotypes, and humans with the G/G genotype are said to have a lower blood adiponectin level than those with the T/T genotype.
To a group of patients with NASH having the adiponectin gene SNP276 which is of the G/G genotype and a group of patients with NASH having the adiponectin gene SNP276 which is of the genotype other than the G/G genotype (each group comprising 15 cases), 900 mg of EPA-E is administered twice a day for one year. After the lapse of one year, therapeutic effects are evaluated by the NAS scoring of Kleiner et al. In both of the group of patients with NASH having the G/G genotype and the group of patients with NASH having the genotype other than the G/G genotype, NAS scores are improved owing to the administration of the drug for one year.

The next experiment relates to NASH. The following applies: 2700 mg/day for 12 months; Non-Patent Literature 3; cited from earlier work.
The mark [3] stands for this setting: EPADEL S900 (900 mg EPA-E) twice a day, one year, vs before treatment and vs control group.
[4] abbreviates: effective group (Brunt score changed by 1 or 2).
Where [5] appears, read: ineffective group (Brunt score not changed).

Turning to `CC/C=C\C/C=C\C/C=C\C/C=C\C/C=C\CCCC(=O)OCC` [EPA-E, ethyl icosapentate ester], the “mean value of ALT” value in experiment [1] (setting [3]) is recorded as “reduced from those before treatment more markedly in comparison with the control group”. For the same molecule, the “mean value of AST” value in experiment [1] (setting [3]) is on record as “reduced from those before treatment more markedly in comparison with the control group”. In addition, the TIMP-1 entry in experiment [1] (setting [4]) is given as “gradually reduced in value”; in experiment [1] (setting [5]), “hardly changed in value”. Moreover, the hyaluronic acid result in experiment [1] (setting [4]) is recorded as “gradually reduced in value”; in experiment [1] (setting [5]) it was “hardly changed in value”. Also, the “type IV collagen” value in experiment [1] (setting [4]) is reported as “gradually reduced in value”; in experiment [1] (setting [5]), “hardly changed in value”. The “reduction rate of the OA/SA ratio in two months” value in experiment [1] (effective group compared with ineffective group) was “high in the effective group as compared with the ineffective group”. The “plasma OA/SA ratio” value is on record as “tends to be reduced in both groups” in experiment [1] (for two months after start of administration, effective and ineffective groups); “tends more or less to be reduced” in experiment [1] (from the lapse of two months on, effective and ineffective groups); “lower in value than in the ineffective group” in experiment [1] (two months after start of administration, effective group vs ineffective group). Also, the “average fibrosis, fibrosis staging of Brunt et al.” value in experiment [1] (liver biopsy at the end of one-year dosage) is listed as “from stage 2 to stage 1”. Also, in experiment [2] (group A (OA/SA reduction in one month not lower than 5%)), the “fibrosis, staging of Brunt et al., by liver biopsy” value is “ameliorated from stage 2 to stage 1 or non-fibrotic stage, or again, from stage 1 to non-fibrotic stage”. Besides, the amelioration of fibrosis entry in experiment [2] (group B (OA/SA reduction in one month lower than 1%)) is “slight”. The “degree of improvement in NAS score” value with patients with NASH (G/G genotype group vs other genotype group) is “higher in the group of patients with NASH having the G/G genotype”. The “NAS scores (Kleiner et al.)” value in the experiment on patients with NASH (G/G genotype group) and in the experiment with patients with NASH (genotype other than G/G) was “improved” in each case. The “NASH (AST, ALT, inflammatory cytokines, oxidative stress markers, liver biopsy)” value in the experiment on NASH was “amelioration of NASH”.
